This note sets out measurements from ChEMBL document CHEMBL3352659, “Indolinone-based acetylcholinesterase inhibitors: synthesis, biological activity and molecular modeling” (Eur J Med Chem, 2014).

In general, IC50 refers to the concentration that inhibits the measured activity by half. Read a high IC50 as lower potency. A word on the Ki: it is a dissociation constant, usually derived from enzyme kinetics or from competition with a known ligand. Read a low Ki as higher affinity.

Experiment [1] deals with T1, Acetylcholinesterase (Electrophorus electricus, UniProt O42275). Nature of the experiment: Inhibition of electric eel AChE using acetylthiocholine iodide substrate by Ellman method based spectrophotometry. For orientation: DTNB colorimetry detects thiols as they appear.
Experiment [2] deals with Cholinesterase (Equus caballus, UniProt P81908). In words: Inhibition of equine serum BuChE using butyrylthiocholine iodide substrate by Ellman method based spectrophotometry.
Experiment [3] can be described thus: Selectivity index, ratio of IC50 for equine serum BuChE to IC50 for electric eel AChE.
The target in experiment [4] is T1, Acetylcholinesterase. In words: Mixed type inhibition of electric eel AChE using acetylthiocholine iodide substrate by Lineweaver-Burk plot analysis.

T1 sequence (O42275 whole entry): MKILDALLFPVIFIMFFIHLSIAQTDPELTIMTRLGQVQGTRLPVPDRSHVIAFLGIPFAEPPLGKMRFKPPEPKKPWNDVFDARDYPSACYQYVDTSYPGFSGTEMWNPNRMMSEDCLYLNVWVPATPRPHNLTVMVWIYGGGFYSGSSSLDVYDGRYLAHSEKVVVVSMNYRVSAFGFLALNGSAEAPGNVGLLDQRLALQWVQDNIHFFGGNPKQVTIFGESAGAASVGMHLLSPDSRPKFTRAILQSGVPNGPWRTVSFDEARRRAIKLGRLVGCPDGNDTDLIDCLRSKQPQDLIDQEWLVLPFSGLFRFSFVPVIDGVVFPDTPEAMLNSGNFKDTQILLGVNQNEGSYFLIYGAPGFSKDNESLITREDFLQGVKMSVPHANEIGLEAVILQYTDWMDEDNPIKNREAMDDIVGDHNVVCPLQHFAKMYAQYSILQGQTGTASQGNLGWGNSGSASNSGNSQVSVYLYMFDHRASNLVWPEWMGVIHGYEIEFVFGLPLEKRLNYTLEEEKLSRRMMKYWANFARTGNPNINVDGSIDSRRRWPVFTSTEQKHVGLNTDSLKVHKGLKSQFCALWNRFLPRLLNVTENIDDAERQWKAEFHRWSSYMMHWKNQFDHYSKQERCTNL
Chain of Cholinesterase (P81908 whole entry): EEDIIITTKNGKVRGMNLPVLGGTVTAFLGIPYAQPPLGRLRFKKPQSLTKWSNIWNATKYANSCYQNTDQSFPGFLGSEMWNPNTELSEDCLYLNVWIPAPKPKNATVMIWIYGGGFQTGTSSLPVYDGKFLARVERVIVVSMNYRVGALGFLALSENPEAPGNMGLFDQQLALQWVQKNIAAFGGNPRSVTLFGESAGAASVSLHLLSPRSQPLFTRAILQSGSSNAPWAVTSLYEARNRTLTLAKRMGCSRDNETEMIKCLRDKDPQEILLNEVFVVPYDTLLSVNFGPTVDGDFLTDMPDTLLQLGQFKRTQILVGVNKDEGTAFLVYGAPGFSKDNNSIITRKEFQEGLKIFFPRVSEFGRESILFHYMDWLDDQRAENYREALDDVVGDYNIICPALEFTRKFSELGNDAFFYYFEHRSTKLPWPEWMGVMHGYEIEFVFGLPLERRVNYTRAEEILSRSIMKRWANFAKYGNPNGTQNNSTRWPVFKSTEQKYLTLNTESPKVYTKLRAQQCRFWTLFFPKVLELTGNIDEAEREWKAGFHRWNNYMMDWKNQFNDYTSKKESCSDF

Regarding `Cc1ccccc1C[n+]1ccc(/C=C2/C(=O)Nc3ccccc32)cc1`, the half-inhibitory concentration (IC50) is 15.3 nM in experiment [1] and 887 nM in experiment [2]. The Ratio IC50 in experiment [3] came to 57.9.

As for `O=C1Nc2ccccc2/C1=C\c1cc[n+](Cc2ccccc2Br)cc1`, the values for the IC50 in experiment [1] and in experiment [2] were 1.46 nM and 1230 nM, respectively. In addition, the Ratio IC50 in experiment [3] is 842.

In the case of `O=C1Nc2ccccc2/C1=C\c1cc[n+](Cc2ccc(CCl)cc2)cc1`, the values for the IC50 in experiment [1] and in experiment [2] were 103 nM and 1000 nM, respectively. Besides, the Ratio IC50 in experiment [3] stood at 9.67.

Take `O=C1Nc2ccccc2/C1=C\c1cc[n+](Cc2ccc(Cl)cc2)cc1`: the IC50 is 590 nM in experiment [1] and 2200 nM in experiment [2]. For the same molecule, the Ratio IC50 in experiment [3] is 3.73.

As for `O=C1Nc2ccccc2/C1=C\c1cc[n+](Cc2c(Cl)cccc2Cl)cc1`, the results for the IC50 in experiment [1] and in experiment [2] were 17 nM and 1500 nM, respectively. For the same molecule, the Ratio IC50 in experiment [3] was 88.2.

Regarding `O=C1Nc2ccccc2/C1=C\c1cc[n+](Cc2ccccc2Cl)cc1`, the values for the IC50 in experiment [1] and in experiment [2] were 0.44 nM and 1370 nM, respectively. Also, the Ratio IC50 in experiment [3] is 3110. This molecule also registered a Ki in experiment [4] of 1.14 nM.

In the case of `O=C1Nc2ccccc2/C1=C\c1cc[n+](Cc2ccc(Br)cc2)cc1`, the values for the IC50 in experiment [1] and in experiment [2] were 653 nM and 1900 nM, respectively. Moreover, the Ratio IC50 in experiment [3] amounted to 2.9.

For the molecule `O=C1Nc2ccccc2/C1=C\c1cc[n+](Cc2ccccc2[N+](=O)[O-])cc1`, the IC50 in experiment [1] was 214 nM; in experiment [2], 1600 nM. Further, in experiment [3], the Ratio IC50 came to 7.5.

As to `O=C1Nc2ccccc2/C1=C\c1cc[n+](Cc2ccc(Cl)cc2Cl)cc1`, the IC50 came out at 258 nM in experiment [1] and 2500 nM in experiment [2]. In experiment [3], the Ratio IC50 came to 9.7.

As for `O=C1Nc2ccccc2/C1=C\c1cc[n+](Cc2cccc(Br)c2)cc1`, the IC50 in experiment [1] amounted to 10.3 nM; in experiment [2] it was 1740 nM. Moreover, the Ratio IC50 in experiment [3] came out at 169.

With `O=C1Nc2ccccc2/C1=C\c1cc[n+](Cc2cccc(F)c2)cc1`, the results for the IC50 in experiment [1] and in experiment [2] were 12.8 nM and 4500 nM, respectively. In experiment [3], the Ratio IC50 was determined as 352.

Take `COc1cccc(C[n+]2ccc(/C=C3/C(=O)Nc4ccccc43)cc2)c1`: the IC50 in experiment [1] was determined as 6.6 nM; in experiment [2], 2800 nM. In addition, the Ratio IC50 in experiment [3] was 424.

Regarding `O=C1Nc2ccccc2/C1=C\c1cc[n+](Cc2ccc(F)cc2)cc1`, the results for the IC50 in experiment [1] and in experiment [2] were 677 nM and 3100 nM, respectively. In experiment [3], the Ratio IC50 stood at 4.58.

For the molecule `O=C1Nc2ccccc2/C1=C\c1cc[n+](Cc2ccc([N+](=O)[O-])cc2)cc1`, the values for the IC50 in experiment [1] and in experiment [2] were 744 nM and 7500 nM, respectively. Moreover, the Ratio IC50 in experiment [3] amounted to 10.

Take `O=C1Nc2ccccc2/C1=C\c1cc[n+](Cc2ccccc2)cc1`: the concentration for half-maximal inhibition (IC50) was 47.1 nM in experiment [1] and 4300 nM in experiment [2]. Further, the Ratio IC50 in experiment [3] turned out to be 91.3.

Consider `O=C1Nc2ccccc2/C1=C\c1cc[n+](Cc2c(F)cccc2Cl)cc1`, for which the figures for the IC50 in experiment [1] and in experiment [2] were 4.1 nM and 2000 nM, respectively. The Ratio IC50 in experiment [3] came out at 488.

On to `O=C1Nc2ccccc2/C1=C\c1cc[n+](Cc2ccccc2F)cc1`, for which the IC50 was 1.25 nM in experiment [1] and 4270 nM in experiment [2]. The Ratio IC50 in experiment [3] was found to be 3420.

For the molecule `O=C1Nc2ccccc2/C1=C\c1cc[n+](Cc2ccc(Cl)c(Cl)c2)cc1`, the IC50 in experiment [1] came out at 29.4 nM; in experiment [2] it was 3300 nM. Besides, the Ratio IC50 in experiment [3] was 112.

`COc1ccc(C[n+]2ccc(/C=C3/C(=O)Nc4ccccc43)cc2)cc1`: the IC50 worked out at 677 nM in experiment [1] and 7900 nM in experiment [2]. The Ratio IC50 in experiment [3] was 11.7.

Turning to `Cc1cccc(C[n+]2ccc(/C=C3/C(=O)Nc4ccccc43)cc2)c1`, the IC50 in experiment [1] stood at 5.2 nM; in experiment [2] it was 1700 nM. The Ratio IC50 in experiment [3] came out at 327.

Turning to `O=C1Nc2ccccc2/C1=C\c1cc[n+](Cc2cccc(Cl)c2)cc1`, the values for the 50% inhibitory concentration (IC50) in experiment [1] and in experiment [2] were 4.9 nM and 1350 nM, respectively. Besides, the Ratio IC50 in experiment [3] is 276.
